This is an account of results in US12617783B2, “Heterocyclic GLP-1R agonists” (BIOMEA FUSION, INC., priority 2024, dated 2026).

SMILES strings stand for the structures.

T1 sequence (P43220 24-463): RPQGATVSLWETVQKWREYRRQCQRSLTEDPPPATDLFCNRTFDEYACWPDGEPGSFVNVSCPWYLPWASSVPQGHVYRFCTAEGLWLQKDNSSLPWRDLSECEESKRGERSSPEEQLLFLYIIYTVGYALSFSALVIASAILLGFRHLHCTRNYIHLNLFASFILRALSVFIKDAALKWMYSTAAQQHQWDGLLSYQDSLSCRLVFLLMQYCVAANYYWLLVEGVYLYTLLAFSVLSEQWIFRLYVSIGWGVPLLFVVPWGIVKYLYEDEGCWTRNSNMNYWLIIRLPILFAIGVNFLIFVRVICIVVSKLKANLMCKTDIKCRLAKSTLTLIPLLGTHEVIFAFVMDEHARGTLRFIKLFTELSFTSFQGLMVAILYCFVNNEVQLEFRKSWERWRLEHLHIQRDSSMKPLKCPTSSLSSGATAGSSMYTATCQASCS

The assay concerns the target T1, human GLP-1R (Homo sapiens, UniProt P43220).
T1 construct: host or cells: HEK293
Briefly: GLP-1R cAMP assay (Example B1b, HTRF, 30 min at 37°). The class given is cell-based. Conditions: cAMP accumulation in HEK293 expressing human GLP-1R, no BETP, 30 min at 37° (Method B1b), Table 1. How it is done:
Assay was carried out with HEK293 expressing human GLP-1R using HTRF assay, developed by Wuxi Apptec. The method is a competitive assay between native cAMP produced by the cells and exogenous cAMP labeled with a proprietary dye d2. The tracer binding is visualized by a mAb anti-cAMP labeled with Cryptate. The signal (i.e. energy transfer) is inversely proportional to the concentration of CAMP in either standard or experimental sample. Compounds were tested in the absence of BETP. Ten microliter of cell suspension in assay buffer (5 mM HEPES, 500 μM IBMX, 0.1% BSA) were added to each well (1,000 cells per well) in a low volume 384-well plate for the assay. Serially diluted compounds were added in 100 nL volume to duplicate wells, by Labcyte Echo. GLP-1 (7-37) was used as positive control. Assay plate was incubated for 30 minutes at 37°. Stock of cAMP Detection Solution was prepared by mixing 38 parts of cAMP lysis buffer, 1 part of cAMP-D2, 1 part of anti-cAMP cryptate reagent (Cisbio #62AM4PEJ). Ten microliter of the cAMP Detection Solution was added to each well, and the assay plate was incubated for 1 hour at room temperature in the dark. Plates were read on Envision plate reader. The data were analyzed by ScreenUltra in Dotmatics, with % activation expressed using following formula: (Signal ratio […]*10000−negative control)/(postive control−negative control)*100. Dose response curves were plotted and EC50 values calculated by non-linear regression using 4-parameter fit. The potency (EC50) values for cAMP accumulation in HEK293 cells are reported in the Table 1 below (for compounds ID 610-708).
Background: cAMP levels reflect the balance of adenylyl cyclase and phosphodiesterase activity.
In general, EC50 refers to the midpoint of the concentration-response curve. Lower therefore signals an effect from little substance. `CNC(=O)Cc1ccc(-n2ccn(-c3c4c(nn3-c3cc(C)c(F)c(C)c3)C[C@H]3CCC[C@@H]4N3C(=O)c3cc4cc([C@H]5CCOC(C)(C)C5)ccc4n3[C@@]3(c4noc(=O)[nH]4)C[C@@H]3C)c2=O)cc1F` [Compound 611, 2-(4-(3-((4S,8R)-10-(5-((S)-2,2-dimethyltetrahydro-2H-pyran-4-yl)-1-((1S,2S)-2-methyl-1-(5-oxo-4,5-dihydro-1,2,4-oxadiazol-3-yl)cyclopropyl)-1H-indole-2-carbonyl)-2-(4-fluoro-3,5-dimethylphenyl)-4,5,6,7,8,9-hexahydro-2H-4,8-epiminocycloocta [c]pyrazol-3-yl)-2-oxo-2,3-dihydro-1H-imidazol-1-yl)-2-fluorophenyl)-N-methylacetamide] returned an EC50 of 0.0051 µM.

Turning to `Cc1cc(-n2nc3c(c2-n2ccn(-c4ccc(N(C)C(=O)C5CC5)c(Cl)c4)c2=O)[C@@H]2CCC[C@H](C3)N2C(=O)c2cc3cc([C@H]4CCOC(C)(C)C4)ccc3n2[C@@]2(c3noc(=O)[nH]3)C[C@@H]2C)cc(C)c1F` [Compound 612, N-(2-chloro-4-(3-((4S,8R)-10-(5-((S)-2,2-dimethyltetrahydro-2H-pyran-4-yl)-1-((1S,2S)-2-methyl-1-(5-oxo-4,5-dihydro-1,2,4-oxadiazol-3-yl)cyclopropyl)-1H-indole-2-carbonyl)-2-(4-fluoro-3,5-dimethylphenyl)-4,5,6,7,8,9-hexahydro-2H-4,8-epiminocycloocta [c]pyrazol-3-yl)-2-oxo-2,3-dihydro-1H-imidazol-1-yl)phenyl)-N-methylcyclopropanecarboxamide], the EC50 was 0.0019 µM. Compared with the last compound, the EC50 is about 2.7-fold lower.

The compound `Cc1cc(-n2nc3c(c2-n2ccn(-c4ccc5c(cnn5C)c4F)c2=O)[C@@H]2CC[C@H](C3)N2C(=O)c2cc3cc([C@H]4CCOC(C)(C)C4)ccc3n2[C@@]2(c3noc(=O)n3C)C[C@@H]2C)cc(C)c1F` [Compound 613, 3-[(1S,2S)-1-[5-[(4S)-2,2-dimethyltetrahydropyran-4-yl]-2-[(1S,8R)-4-(4-fluoro-3,5-dimethyl-phenyl)-3-[3-(4-fluoro-1-methyl-indazol-5-yl)-2-oxo-imidazol-1-yl]-4,5,11-triazatricyclo[6.2.1.02,6]undeca-2,5-diene-11-carbonyl]indol-1-yl]-2-methyl-cyclopropyl]-4-methyl-1,2,4-oxadiazol-5-one] came in with an EC50 of 0.0505 µM.

`Cc1cc(-n2nc3c(c2-n2ccn(-c4ccc5cnccc5c4F)c2=O)[C@@H]2CCC[C@H](C3)N2C(=O)c2cc3cc([C@H]4CCOC5(CC5)C4)ccc3n2[C@@]2(c3noc(=O)[nH]3)C[C@@H]2C)cc(C)c1F` [Compound 614, 3-((1S,2S)-1-(2-((4S,8R)-2-(4-fluoro-3,5-dimethylphenyl)-3-(3-(5-fluoroisoquinolin-6-yl)-2-oxo-2,3-dihydro-1H-imidazol-1-yl)-4,5,6,7,8,9-hexahydro-2H-4,8-epiminocycloocta [c]pyrazole-10-carbonyl)-5-((S)-4-oxaspiro[2.5]octan-7-yl)-1H-indol-1-yl)-2-methylcyclopropyl)-1,2,4-oxadiazol-5 (4H)-one]: the concentration giving a half-maximal response (EC50) came out at 0.0006 µM.

`Cc1cc(-n2nc3c(c2-n2ccn(-c4ccc5c(cnn5C)c4F)c2=O)[C@@H]2CCC[C@H](C3)N2C(=O)c2cc3cc(C4CCOC(C)(C)C4)cc(F)c3n2[C@@]2(c3noc(=O)[nH]3)C[C@@H]2C)cc(C)c1F` (stereo partly drawn) [Compound 615, 3-((1S,2S)-1-(5-(2,2-dimethyltetrahydro-2H-pyran-4-yl)-7-fluoro-2-((4S,8R)-3-(3-(4-fluoro-1-methyl-1H-indazol-5-yl)-2-oxo-2,3-dihydro-1H-imidazol-1-yl)-2-(4-fluoro-3,5-dimethylphenyl)-4,5,6,7,8,9-hexahydro-2H-4,8-epiminocycloocta [c]pyrazole-10-carbonyl)-1H-indol-1-yl)-2-methylcyclopropyl)-1,2,4-oxadiazol-5 (4H)-one] came in with a concentration for a half-maximal effect (EC50) of 0.0142 µM.

Compound `Cc1cc(-n2nc3c(c2-n2ccn(-c4ccc5c(cnn5C5CC5)c4F)c2=O)[C@@H]2COC[C@H](C3)N2C(=O)c2cc3cc([C@H]4CCOC(C)(C)C4)ccc3n2[C@@]2(c3noc(=O)[nH]3)C[C@@H]2C)cc(C)c1F` [Compound 617, 3-((1S,2S)-1-(2-((4R,8S)-3-(3-(1-cyclopropyl-4-fluoro-1H-indazol-5-yl)-2-oxo-2,3-dihydro-1H-imidazol-1-yl)-2-(4-fluoro-3,5-dimethylphenyl)-2,4,5,7,8,9-hexahydro-4,8-epiminooxocino [5,4-c]pyrazole-10-carbonyl)-5-((S)-2,2-dimethyltetrahydro-2H-pyran-4-yl)-1H-indol-1-yl)-2-methylcyclopropyl)-1,2,4-oxadiazol-5 (4H)-one] came in with an EC50 of 0.0025 µM.

`Cc1cc(-n2nc3c(c2-n2ccn(-c4ccc5c(cnn5C)c4F)c2=O)[C@@H]2CC[C@H](C3)N2C(=O)c2cc3cc(C4CCOC(C)(C)C4)cc(F)c3n2[C@@]2(c3noc(=O)[nH]3)C[C@@H]2C)cc(C)c1F` (stereo partly drawn) [Compound 618, 3-[(1S,2S)-1-[5-(2,2-dimethyltetrahydropyran-4-yl)-7-fluoro-2-[(1S,8R)-4-(4-fluoro-3,5-dimethyl-phenyl)-3-[3-(4-fluoro-1-methyl-indazol-5-yl)-2-oxo-imidazol-1-yl]-4,5,11-triazatricyclo[6.2.1.02,6]undeca-2,5-diene-11-carbonyl]indol-1-yl]-2-methyl-cyclopropyl]-4H-1,2,4-oxadiazol-5-one] came in with a 50% effective concentration (EC50) of 0.0296 µM.

For `Cc1cc(-n2nc3c(c2-n2ccn(-c4ccc5c(cnn5C)c4F)c2=O)[C@@H]2COC[C@H](C3)N2C(=O)c2cc3cc(C4CCOC(C)(C)C4)cc(F)c3n2[C@@]2(c3noc(=O)[nH]3)C[C@@H]2C)cc(C)c1F` (stereo partly drawn) [Compound 619, 3-((1S,2S)-1-(5-(2,2-dimethyltetrahydro-2H-pyran-4-yl)-7-fluoro-2-((4R,8S)-3-(3-(4-fluoro-1-methyl-1H-indazol-5-yl)-2-oxo-2,3-dihydro-1H-imidazol-1-yl)-2-(4-fluoro-3,5-dimethylphenyl)-2,4,5,7,8,9-hexahydro-4,8-epiminooxocino [5,4-c]pyrazole-10-carbonyl)-1H-indol-1-yl)-2-methylcyclopropyl)-1,2,4-oxadiazol-5(4H)-one], the concentration giving a half-maximal response (EC50) was found to be 0.0054 µM.

`Cc1cc(-n2nc3c(c2-n2ccn(-c4ccc5c(cnn5C)c4F)c2=O)[C@@H]2CCC[C@H](C3)N2C(=O)c2cc3cc([C@@H]4CCOC(C)(C)C4)cc(F)c3n2[C@@]2(c3noc(=O)[nH]3)C[C@@H]2C)cc(C)c1F` [Compound 701, 3-((1S,2S)-1-(5-((R)-2,2-dimethyltetrahydro-2H-pyran-4-yl)-7-fluoro-2-((4S,8R)-3-(3-(4-fluoro-1-methyl-1H-indazol-5-yl)-2-oxo-2,3-dihydro-1H-imidazol-1-yl)-2-(4-fluoro-3,5-dimethylphenyl)-4,5,6,7,8,9-hexahydro-2H-4,8-epiminocycloocta [c]pyrazole-10-carbonyl)-1H-indol-1-yl)-2-methylcyclopropyl)-1,2,4-oxadiazol-5 (4H)-one] displayed an EC50 above 0.1 µM.

Take `Cc1cc(-c2nn3c(c2-n2ccn(-c4ccc5c(cnn5C)c4F)c2=O)[C@@H](C)N(C(=O)c2cc4cc([C@H]5CCOC(C)(C)C5)ccc4n2[C@@]2(c4noc(=O)[nH]4)C[C@@H]2C)CCC3)cc(C)c1F` [Compound 702, 3-((1S,2S)-1-(5-((S)-2,2-dimethyltetrahydro-2H-pyran-4-yl)-2-((R)-3-(3-(4-fluoro-1-methyl-1H-indazol-5-yl)-2-oxo-2,3-dihydro-1H-imidazol-1-yl)-2-(4-fluoro-3,5-dimethylphenyl)-4-methyl-5,6,7,8-tetrahydro-4H-pyrazolo[1,5-a][1,4]diazepine-5-carbonyl)-1H-indol-1-yl)-2-methylcyclopropyl)-1,2,4-oxadiazol-5 (4H)-one]: the concentration giving a half-maximal response (EC50) is above 0.1 µM.

Take `Cc1cc(-c2nn3c(c2-n2ccn(-c4ccc5c(cnn5C)c4F)c2=O)[C@H](C)N(C(=O)c2cc4cc([C@H]5CCOC(C)(C)C5)ccc4n2[C@@]2(c4noc(=O)[nH]4)C[C@@H]2C)CCC3)cc(C)c1F` [Compound 703, 3-((1S,2S)-1-(5-((S)-2,2-dimethyltetrahydro-2H-pyran-4-yl)-2-((S)-3-(3-(4-fluoro-1-methyl-1H-indazol-5-yl)-2-oxo-2,3-dihydro-1H-imidazol-1-yl)-2-(4-fluoro-3,5-dimethylphenyl)-4-methyl-5,6,7,8-tetrahydro-4H-pyrazolo[1,5-a][1,4]diazepine-5-carbonyl)-1H-indol-1-yl)-2-methylcyclopropyl)-1,2,4-oxadiazol-5 (4H)-one]: the midpoint of the response, the EC50, lay at 0.0024 µM.

In turn, `Cc1cc(-n2nc3c(c2-n2ccn(-c4ccc5c(cnn5C)c4F)c2=O)[C@@H]2COC[C@H](C3)N2C(=O)c2cc3cc([C@H]4CCOC(C)(C)C4)cc(F)c3n2[C@@]2(c3noc(=O)[nH]3)C[C@@H]2C)cc(C)c1F` [Compound 705, 3-((1S,2S)-1-(5-((S)-2,2-dimethyltetrahydro-2H-pyran-4-yl)-7-fluoro-2-((4R,8S)-3-(3-(4-fluoro-1-methyl-1H-indazol-5-yl)-2-oxo-2,3-dihydro-1H-imidazol-1-yl)-2-(4-fluoro-3,5-dimethylphenyl)-2,4,5,7,8,9-hexahydro-4,8-epiminooxocino [5,4-c]pyrazole-10-carbonyl)-1H-indol-1-yl)-2-methylcyclopropyl)-1,2,4-oxadiazol-5(4H)-one] showed a concentration giving a half-maximal response (EC50) of 0.0024 µM.
